Experimental data taken from patent US4678787A, “4H-1-benzopyran-4-ones and their sulfur containing analogs” (Warner-Lambert Company, priority 1985, dated 1987).

Columns and labels:
[1] = system: exploratory locomotor activity in rats; assay: Inhibition of exploratory locomotor activity, rat PO (McLean et al. screen); format: in vivo; conditions: read-out: Inh. Loc. Act. (rat PO) (ED50)
From the text: (§1) All compounds shown in the following Table 1 are active in laboratory tests that have been useful as predictors of antipsychotic efficacy (e.g., treatment of schizophrenia). Among these tests described by J. R. McLean, R. B. Parker, and L. L. Coughenour in Pharmacol. Biochem. Behav. 1978 (8) 97, is one which screens for compounds that decrease exploratory locomotor activity in mice and rats without causing ataxia. […] All known antipsychotic agents are active in this test. Our compounds are also active at doses as low as 0.35 mg/kg.

synthesis of dopamine = assay: Dopamine synthesis in rats treated with gamma-butyrolactone (GBL); format: in vivo, rat
[2] = system: exploratory locomotor activity in mice; assay: Inhibition of exploratory locomotor activity, mouse IP (McLean et al. screen); format: in vivo; conditions: read-out: Inh. Loc. Act. (mouse IP) (ED50)
From the text: as §1

Q: What does the source list for `O=c1ccoc2cc(OCCCN3CC=C(c4ccccc4)CC3)ccc12` [compound 1, 7-[3-(4-Phenyl-1,2,3,6-tetrahydro-1-pyridyl)propoxy]-4H-1-benzopyran-4-one]?
A: ED50 [1]: 29.5 mg/kg; synthesis of dopamine (synthesis of dopamine): inhibition of the synthesis of dopamine; ED50 [2]: 0.7 mg/kg

Q: Which ED50 [1] does the source give for `O=c1ccoc2cc(OCCCN3CCN(c4ccccc4)CC3)ccc12` [compound 2, 7-[3-(4-phenylpiperazinyl)propoxy]-4H-1-benzopyran-4-one] here?
A: The ED50 was 4.3 mg/kg.

Q: And the ED50 [2]?
A: Its ED50 is 2.4 mg/kg.

Q: `O=c1ccoc2cc(OCCCN3CCN(c4ccc(Cl)cc4)CC3)ccc12` [compound 3] was tested. Which ED50 [1] did it give?
A: Its ED50 is 18.6 mg/kg.

Q: What about the ED50 [2] of the same molecule?
A: The ED50 was 11.1 mg/kg.

Q: With `Cc1cccc(N2CCN(CCCOc3ccc4c(=O)ccoc4c3)CC2)c1C` [compound 4] as the molecule, how does the ED50 [1] read?
A: Its ED50 is 13.2 mg/kg.

Q: And the ED50 [2]?
A: Its ED50 is 11.2 mg/kg.

Q: What does the source list for `O=c1ccoc2cc(OCCCN3CCN(c4cccc(Cl)c4)CC3)ccc12` [compound 5]?
A: ED50 [1]: 8.5 mg/kg; ED50 [2]: 7.7 mg/kg

Q: Which results are given for `COc1ccccc1N1CCN(CCCOc2ccc3c(=O)ccoc3c2)CC1` [compound 6]?
A: ED50 [1]: > 30 mg/kg; ED50 [2]: 7.7 mg/kg

Q: With `O=c1ccoc2cc(OCCCN3CCC(c4ccccc4)CC3)ccc12` [compound 7, 7-[3-(4-Phenyl-1-piperidinyl)propoxy]-4H-1-benzopyran-4-one] as the molecule, how does the ED50 [1] read?
A: The ED50 was over 30 mg/kg.

Q: What about the ED50 [2] of the same molecule?
A: Its ED50 is 14.8 mg/kg.

Q: For `Cc1ccccc1N1CCN(CCCOc2ccc3c(=O)ccoc3c2)CC1` [compound 8], which ED50 [1] is on record?
A: The ED50 was 30 mg/kg.

Q: And the ED50 [2]?
A: Its ED50 is 2 mg/kg.

Q: What does the source list for `Cc1cccc(N2CCN(CCCOc3ccc4c(=O)ccoc4c3)CC2)c1` [compound 9]?
A: ED50 [1]: 4.8 mg/kg; ED50 [2]: 5.4 mg/kg

Q: With `Cc1ccc(N2CCN(CCCOc3ccc4c(=O)ccoc4c3)CC2)cc1` [compound 10] as the molecule, how does the ED50 [1] read?
A: Its ED50 is 22.3 mg/kg.

Q: And the ED50 [2]?
A: Its ED50 is 6.1 mg/kg.

Q: How did the ED50 [1] turn out when `O=c1ccoc2cc(OCCCN3CCN(c4ccc(F)cc4)CC3)ccc12` [compound 11] was run?
A: Its ED50 is 7.1 mg/kg.

Q: What about the ED50 [2] of the same molecule?
A: Its ED50 is 7 mg/kg.

Q: Which results are given for `O=c1ccoc2cc(OCCCN3CCN(c4ccccn4)CC3)ccc12` [compound 12]?
A: ED50 [1]: 1.7 mg/kg; ED50 [2]: 5 to 6 mg/kg

Q: Which ED50 [2] does the source give for `O=c1ccoc2cc(OCCCN3CCN(c4ccccc4Cl)CC3)ccc12` [compound 13, 7-[3-(4-(2-Chlorophenyl)-1-piperazinyl)propoxy]-4H-1-benzopyran-4-one] here?
A: The ED50 was over 30 mg/kg.

Q: `O=c1ccoc2cc(OCCCN3CCN(c4ccc(Cl)c(Cl)c4)CC3)ccc12` [compound 14] was tested. Which ED50 [1] did it give?
A: Its ED50 is 17.8 mg/kg.

Q: What about the ED50 [2] of the same molecule?
A: The ED50 was 14 to 15 mg/kg.

Q: `COc1ccc(N2CCN(CCCOc3ccc4c(=O)ccoc4c3)CC2)cc1` [compound 15] was tested. Which ED50 [1] did it give?
A: The ED50 was over 30 mg/kg.

Q: And the ED50 [2]?
A: The ED50 was 30 mg/kg.

Q: Which ED50 [2] does the source give for `O=c1ccoc2cc(OCCCN3CCN(c4cccc(O)c4)CC3)ccc12` [compound 16] here?
A: The ED50 was over 30 mg/kg.

Q: How did the ED50 [1] turn out when `Cc1ccc(N2CCN(CCCOc3ccc4c(=O)ccoc4c3)CC2)cc1C` [compound 17] was run?
A: The ED50 was 7.3 mg/kg.

Q: And the ED50 [2]?
A: The ED50 was 3 mg/kg.

Q: `O=c1ccoc2cccc(OCCCN3CCN(c4ccccc4)CC3)c12` [compound 18, 5-3-(4-phenyl-1-piperazinyl)propoxyl-4H-1-benzopyran-4-one] was tested. Which ED50 [1] did it give?
A: Its ED50 is 15.6 mg/kg.

Q: What about the ED50 [2] of the same molecule?
A: Its ED50 is 13.3 mg/kg.

Q: `O=c1ccoc2ccc(OCCCCN3CCN(c4ccccc4)CC3)cc12` [compound 19, 6-[4-(4-phenyl-1-piperazinyl)butoxy]-4H-1-benzopyran-4-one] was tested. Which ED50 [1] did it give?
A: Its ED50 is 1.5 mg/kg.

Q: What about the ED50 [2] of the same molecule?
A: The ED50 was 3 mg/kg.

Q: How did the ED50 [1] turn out when `O=c1ccoc2cc(OCCCCN3CCN(c4ccccc4)CC3)ccc12` [compound 20, 7-[4-(4-Phenyl-1-piperazinyl)butoxy]-4H-1-benzopyran-4-one] was run?
A: The ED50 was 1.9 mg/kg.

Q: And the ED50 [2]?
A: The ED50 was 0.35 mg/kg.

Q: Which results are given for `O=c1ccoc2cc(OCCCN3CCN(c4ncccn4)CC3)ccc12` [compound 21]?
A: ED50 [1]: > 30 mg/kg; ED50 [2]: 23.7 mg/kg
